Laboratory results from patent US12559750B2, “Methods and compositions for treatment of polycystic kidney disease” (Regulus Therapeutics Inc., priority 2021, dated 2026).

Assays:
AMPA-R = assay: [3H]AMPA radioligand binding assay on rat brain synaptic membranes;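 also: competition binding in which test compounds at rising concentrations displace [3H]AMPA from AMPA-R on rat brain synaptic membranes, with reduced bound radioligand as read-out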
AMPA-R (GluA1/GluA4) = target: T1, AMPA-R (GluA1/GluA4) (Homo sapiens, UniProt P42261+P48058); assay: Manual whole-cell patch clamp, ChanTest GluA1/GluA4 EZCells; assay type: cell-based; conditions: for functional antagonism towards AMPA-R relative to RGLS4326: in words
T1 construct: host or cells: ChanTest GluA1/GluA4 EZCells
Experimental: To evaluate functional antagonism of anti-miR-17 oligonucleotides towards the AMPA-R, certain oligonucleotides were tested using the manual whole-cell patch clamp technique, which records membrane currents as a measure of AMPA-R activity.
Manual whole-cell patch clamp studies were performed by Metrion Biosciences (Cambridge, UK). Whole-cell voltage clamp experiments were performed at room temperature (18-21° C.) using an EPC10 patch clamp amplifier using Patchmaster software (HEKA Elektronik). Glass patch pipettes were fabricated from borosilicate glass capillaries (Harvard Apparatus) to resistances between 1.4 and 2.5 MΩ. Membrane currents were recorded using the whole-cell patch clamp technique. ChanTest® GluA1/GluA4 EZCells were clamped at a holding potential of −80 mV and membrane currents elicited by 10 μM(S)-AMPA delivered using a VC38 perfusion system (ALA Scientific Instruments). The […] current amplitude values were measured with each application of 10 μM(S)-AMPA. The fractional change of current amplitude produced by each concentration of compound was calculated relative to the control current (pre-compound) and expressed as percentage change (% inhibition) for each cell. RGLS4326 was tested in a separate study from all other compounds in Table 6.

miR-17 [1] = assay: miR-17 luciferase sensor assay in HeLa cells; assay type: cell-based; conditions: for EC50: HeLa cells, 18- to 24-hour transfection
Experimental: The in vitro potency of certain compounds was evaluated using a miR-17 luciferase sensor assay which uses a luciferase reporter vector for miR-17, with two fully complementary miR-17 binding sites in tandem in the 3′-UTR of the luciferase gene. HeLa cells were co-transfected with the luciferase reporter vector and an exogenous miR-17-expression vector that acted to repress the luciferase signal.

miR-17 [2] = assay: miR-17 PD-Sig in mouse kidney cell lines; assay type: cell-based
Experimental: The activity of certain compounds was evaluated using a mouse miR-17 Pharmacodynamic-Signature (miR-17 PD-Sig), which consists of the expression of 18 unique miR-17 target genes normalized by six reference housekeeping genes, to provide an unbiased and comprehensive assessment of miR-17 activity. The mouse miR-17 PD-Sig score was the calculated average of the 18 genes' individual log 2 fold changes (normalized by six housekeeping genes) compared to mock transfection (Lee et al., Nat. Commun., 2019, 10, 4148).
The PD-Sig for RGLS4326 in mIMCD3 cells (77.2, indicated by “*”) was not generated in this experiment; the value in Table 14 is that reported by Lee et al., Nat. Commun., 2019, 10, 4148. Blank cells in the table indicate that a compound was not tested in a particular cell line.

miR-17 [3] = assay: microRNA polysome shift assay (miPSA) in kidney of wild type mice; assay type: in vivo, mouse; set-up: scale not given here; conditions: seven days later
Experimental: In vivo potency was evaluated using the microRNA polysome shift assay (miPSA). This assay was used to determine the extent to which compounds directly engage the miR-17 target in the kidney in normal and PKD mice. The miPSA relies on the principle that active miRNAs bind to their mRNA targets in translationally active high molecular weight (HMW) polysomes, whereas the inhibited miRNAs reside in the low MW (LMW) polysomes. Treatment with anti-miR results in a shift of the microRNA from HMW polysomes to LMW polysomes. Thus, the miPSA provides a direct measurement of microRNA target engagement by a complementary anti-miR (Androsavich et al., Nucleic Acids Research, 2015, 44: e13).
Wild type mice were administered a single dose of 0.3 mg/kg, 3 mg/kg, or 30 mg/kg. Kidney tissue was collected seven days later and subjected to the miPSA. The mean displacement score for each treatment is shown in Table 15 (PBS, n=17; RGLS4326 30 mg/kg, n=10; all other treatments, n=4-5). The tested oligonucleotides displaced miR-17 from translationally active polysome (as measured by miPSA) in normal mouse kidneys.

mice = conditions: in vivo; for CNS-related findings noted: mouse, sc, 2000 mg/kg
Experimental: Each compound was tested in a single dose at 2000 mg/kg, and at escalating doses (100, 450, and 2000 mg/kg).

C57Bl/6J male mice = assay: ICV maximum tolerated dose study, Study 1; assay type: in vivo, mouse; conditions: for Mortality/total number of mice: 7-day; for MTD: C57Bl/6J mice, predicted from the study
Experimental: Compounds (RG-NG-1017, RGLS4326, RG-NG-1001) were evaluated in a pilot maximum tolerated dose (MTD) study (discussed below). RG-NG-1017, RGLS4326 and RG-NG-1001 were initially evaluated at 4 dose-levels each. RG-NG-1017 was included for evaluation as a non-AMPA-R binding compound, as compared to RGLS4326 and RG-NG-1001, which bind AMPA-R. C57Bl/6J male mice (Jackson Laboratories), age 6-7 weeks, were used in this study. Mice were assigned randomly to treatment groups, and the study was blinded. Animals were allowed to acclimate for no less than 5 days and housed on a 12 hr light/dark cycle (lights on 7:00 AM). No more than 4 mice were house in each cage in a ventilated cage rack system. The diet consisted of standard rodent chow and water ad libitum.
The following parameters were used for this study: • 1. Route(s) of administration: intracerebroventricular (ICV) dosing of RG-NG-1017, RG-NG-1001, RGLS4326 • 2. Dose Volume(s): 4 μL • 3. Formulation(s): vehicle, Ca^2+ and Mg^2+ free dPBS • 4. Dose Frequency: Once • 5. Study duration: 8 Days • 6. Number of Groups: 3 • 7. Number of animals per group: (2-4 each group) • 8. Total number of animals: […]
For the ICV administration, mice were anesthetized and positioned for injections. The skin over the skull was incised, and a small hole was made in the skull above the target using a microdrill. The stereotactic coordinates were anteroposterior (AP), −0.4 mm; mediolateral (ML), +/−1.0-1.5 mm; dorsoventral (DV), −3.0 mm from the bregma for injection into both the right and left lateral cerebral ventricles (Hironaka et al, 2015). Animals were injected unilaterally with 4 μl into the right lateral cerebral ventricle. Compounds were injected over 1-2 min, and the needle was left in place for 0.5-1 min prior to withdrawal. The incision was closed with sutures, wound clips, or VetBond.
Following ICV treatment (Day 0), animals were monitored for 7 days in which daily health checks, body weight, and mortality was recorded. On Day 7, brain and kidney were collected and fixed (10% formalin) and stored pending histology.

miR-17 [4] = assay: miR-17 PD-Sig in human kidney cell lines; assay type: cell-based

T1 sequence (P42261 19-906): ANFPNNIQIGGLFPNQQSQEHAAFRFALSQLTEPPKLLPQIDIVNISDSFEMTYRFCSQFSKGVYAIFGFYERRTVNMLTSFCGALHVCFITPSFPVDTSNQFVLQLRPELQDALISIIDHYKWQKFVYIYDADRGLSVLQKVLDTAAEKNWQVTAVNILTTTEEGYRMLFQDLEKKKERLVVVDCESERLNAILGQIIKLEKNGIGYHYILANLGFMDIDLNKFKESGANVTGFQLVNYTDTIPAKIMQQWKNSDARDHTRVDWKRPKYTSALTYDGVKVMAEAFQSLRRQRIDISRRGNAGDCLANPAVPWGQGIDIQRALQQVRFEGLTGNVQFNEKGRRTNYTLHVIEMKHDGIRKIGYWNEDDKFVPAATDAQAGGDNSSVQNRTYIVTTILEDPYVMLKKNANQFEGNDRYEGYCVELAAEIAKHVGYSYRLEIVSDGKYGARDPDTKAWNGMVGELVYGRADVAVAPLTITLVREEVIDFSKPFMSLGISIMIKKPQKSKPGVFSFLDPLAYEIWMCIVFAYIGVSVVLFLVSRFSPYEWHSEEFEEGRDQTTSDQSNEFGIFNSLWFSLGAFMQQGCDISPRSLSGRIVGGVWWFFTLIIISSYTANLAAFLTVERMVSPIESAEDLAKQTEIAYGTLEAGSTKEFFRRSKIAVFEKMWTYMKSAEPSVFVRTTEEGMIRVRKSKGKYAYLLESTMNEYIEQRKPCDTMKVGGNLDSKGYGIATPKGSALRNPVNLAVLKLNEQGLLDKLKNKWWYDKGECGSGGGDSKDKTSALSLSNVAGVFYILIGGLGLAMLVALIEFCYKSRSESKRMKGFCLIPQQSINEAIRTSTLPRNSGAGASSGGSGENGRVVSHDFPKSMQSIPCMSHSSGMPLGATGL
T1 sequence (P48058 21-902): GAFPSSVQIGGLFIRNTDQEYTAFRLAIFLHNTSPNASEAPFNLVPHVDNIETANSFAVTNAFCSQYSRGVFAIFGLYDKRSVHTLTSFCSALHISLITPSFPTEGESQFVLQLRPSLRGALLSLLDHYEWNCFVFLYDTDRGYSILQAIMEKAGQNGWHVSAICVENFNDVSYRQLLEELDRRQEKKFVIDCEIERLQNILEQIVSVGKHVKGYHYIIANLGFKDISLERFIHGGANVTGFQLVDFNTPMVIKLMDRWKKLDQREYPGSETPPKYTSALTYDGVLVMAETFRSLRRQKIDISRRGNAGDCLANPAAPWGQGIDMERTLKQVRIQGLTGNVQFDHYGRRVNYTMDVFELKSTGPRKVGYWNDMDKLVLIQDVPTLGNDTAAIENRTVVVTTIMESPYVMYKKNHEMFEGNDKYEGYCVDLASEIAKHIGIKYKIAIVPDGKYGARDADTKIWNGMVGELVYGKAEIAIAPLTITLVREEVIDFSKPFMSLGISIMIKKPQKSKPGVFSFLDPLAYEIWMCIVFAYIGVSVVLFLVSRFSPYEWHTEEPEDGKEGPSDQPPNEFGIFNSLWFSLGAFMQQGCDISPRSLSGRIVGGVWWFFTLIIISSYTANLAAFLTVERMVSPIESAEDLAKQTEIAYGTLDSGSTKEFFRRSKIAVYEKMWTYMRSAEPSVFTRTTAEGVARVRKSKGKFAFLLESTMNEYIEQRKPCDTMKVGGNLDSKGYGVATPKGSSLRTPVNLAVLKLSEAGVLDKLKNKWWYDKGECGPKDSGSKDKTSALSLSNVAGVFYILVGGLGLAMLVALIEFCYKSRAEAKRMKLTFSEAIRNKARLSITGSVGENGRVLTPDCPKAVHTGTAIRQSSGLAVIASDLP

Row | Sequence | IC50 (AMPA-R; Experiment #2) [nM] | % Inhibition @ 0.1 uM (AMPA-R; Experiment #2, 0.1 uM) [%] | % Inhibition @ 1 uM (AMPA-R; Experiment #2, 1 uM) [%] | % Inhibition @ 10 uM (AMPA-R; Experiment #2, 10 uM) [%] | % Inhibition @ 100 uM (AMPA-R; Experiment #2, 100 uM) [%] | % Inhibition on membrane currents evoked with 10 uM (s)-AMPA (Mean ± SD) (AMPA-R (GluA1/GluA4); 0.3 uM compound) [%] | % Inhibition on membrane currents evoked with 10 uM (s)-AMPA (Mean ± SD) (AMPA-R (GluA1/GluA4); 3 uM compound) [%] | functional antagonism towards AMPA-R relative to RGLS4326 (AMPA-R (GluA1/GluA4)) | Log2FC (37.5 nM) (miR-17 [1]) | EC50 (miR-17 [1]) [nM] | EC50 (miR-17 [2]; mIMCD3, mouse, Normal) [nM] | miPSA Displacement Score, Mean (miR-17 [3]; single dose 3 mg/kg) | miPSA Displacement Score, Mean (miR-17 [3]; single dose 30 mg/kg) | miPSA Displacement Score, Mean (miR-17 [3]; single dose 0.3 m/kg) | CNS toxicity in high-dose mouse toxicity studies (mice) | CNS-related findings noted (mice) | Mortality/total number of mice (C57Bl/6J male mice; single ICV 50 μg) | Mortality/total number of mice (C57Bl/6J male mice; single ICV 100 μg) | Mortality/total number of mice (C57Bl/6J male mice; single ICV 300 μg) | Mortality/total number of mice (C57Bl/6J male mice; single ICV 600 μg) | further results
1 | ASGSCMAFCFUFUMUSCS [RG-NG-1016] | > 100000 | 4.7 | 10.4 | 12.3 | 5.9 | 16.0 ± 6.2 | 27.1 ± 9.8 | reduced functional antagonism towards AMPA-R | 2.32 | 20.3 | 146 | 2.263 | 1.134 | 1.892 | no CNS-toxicity were observed | No |  |  |  |  | 
2 | ASGSCMAFCFUFUMUSUS [RG-NG-1017] | > 100000 | 0.2 | −1.3 | 4.3 | 8.1 | 20.0 ± 6.3 | 28.2 ± 5.5 | reduced functional antagonism towards AMPA-R | 2.67 | 15 | 134 | 2.292 | 2.793 | 2.077 | no CNS-toxicity were observed | No | 0/2 | 0/2 | 1/2 | 0/2 | MTD higher than that of RGLS4326 (C57Bl/6J male mice; single ICV): > 40 fold; MTD (C57Bl/6J male mice; single ICV): no established MTD; EC50 (miR-17 [2]; D52B5, mouse, PKD): 74.1 nM; EC50 (miR-17 [4]; HK-2, human, Normal): 49.2 nM; EC50 (miR-17 [4]; WT9-7, human, PKD): 20.1 nM
3 | ASGSCSASCSUSUSUSGS [RG-NG-1001] | 190 | 42.2 | 68.3 | 90.1 | 93.5 | 80.5 ± 6.3 | 88.8 ± 4.5 |  |  |  |  |  |  |  | ataxia, lethargy |  | 3/3 | 2/2 | 2/2 | 2/2 | IC50 (AMPA-R; Experiment #1): 170 nM; % Inhibition @ 0.1 uM (AMPA-R; Experiment #1, 0.1 uM): 41.1%; % Inhibition @ 1 uM (AMPA-R; Experiment #1, 1 uM): 76.2%; % Inhibition @ 10 uM (AMPA-R; Experiment #1, 10 uM): 89.1%; % Inhibition @ 100 uM (AMPA-R; Experiment #1, 100 uM): 91.3%; IC50 (AMPA-R; Experiment #3): 100 nM; % Inhibition @ 0.1 uM (AMPA-R; Experiment #3, 0.1 uM): 59.4%; % Inhibition @ 1 uM (AMPA-R; Experiment #3, 1 uM): 84.8%; % Inhibition @ 10 uM (AMPA-R; Experiment #3, 10 uM): 94.6%; % Inhibition @ 100 uM (AMPA-R; Experiment #3, 100 uM): 96.6%; IC50 (AMPA-R; Table 8): 150 nM; % Inhibition @ Concentration 100 uM (AMPA-R; Table 8 (3′-terminal nucleobase/sugar variants), 100 uM): 102.9%; % Inhibition @ Concentration 0.1 uM (AMPA-R; Table 8, 0.1 uM): 41.9%; % Inhibition @ Concentration 1 uM (AMPA-R; Table 8, 1 uM): 81.3%; % Inhibition @ Concentration 10 uM (AMPA-R; Table 8, 10 uM): 99.3%; Mortality/total number of mice (C57Bl/6J male mice; single ICV 2.5 μg): 1/3; Mortality/total number of mice (C57Bl/6J male mice; single ICV 5 μg): 4/4; Mortality/total number of mice (C57Bl/6J male mice; single ICV 10 μg): 3/4; Mortality/total number of mice (C57Bl/6J male mice; single ICV 25 μg): 3/3; MTD (C57Bl/6J male mice; single ICV): under 2.5 μg
